# Data taken from paper PMC12171880, “Selectivity and Safety Characterization of a Xanthine–Imidazothiazole Lead Structure: a Novel Tryptophan Hydroxylase Inhibitor of Peripheral Serotonin Synthesis” (ACS Pharmacology & Translational Science, 2025).
# Tests used:
# human recombinant TPH2 = molecular target: T1, human recombinant TPH2 (Homo sapiens, UniProt Q8IWU9); test: TPH2 enzymatic activity assay (fluorescence, 96-well); assay type: biochemical
# T1 construct: Full-length human TPH1 and TPH2 (UniProt entries P17752 and Q8IWU9); MBP (N); made in house
# T1 sequence (Q8IWU9 1-490): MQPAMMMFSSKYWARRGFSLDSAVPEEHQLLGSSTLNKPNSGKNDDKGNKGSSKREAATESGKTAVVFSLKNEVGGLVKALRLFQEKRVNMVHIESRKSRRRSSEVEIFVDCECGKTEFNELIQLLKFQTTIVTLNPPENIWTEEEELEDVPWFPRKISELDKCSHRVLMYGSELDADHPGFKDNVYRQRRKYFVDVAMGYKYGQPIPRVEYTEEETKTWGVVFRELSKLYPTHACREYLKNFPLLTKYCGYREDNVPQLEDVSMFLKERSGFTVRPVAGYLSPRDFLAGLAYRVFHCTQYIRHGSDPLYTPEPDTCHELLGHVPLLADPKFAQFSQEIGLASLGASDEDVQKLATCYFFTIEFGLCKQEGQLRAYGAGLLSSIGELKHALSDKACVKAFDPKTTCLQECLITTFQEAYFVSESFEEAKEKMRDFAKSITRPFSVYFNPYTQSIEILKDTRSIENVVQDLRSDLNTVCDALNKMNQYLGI
# human recombinant PAH = molecular target: T2, human recombinant PAH (Homo sapiens, UniProt P00439); test: PAH enzymatic activity assay (fluorescence, 96-well); assay type: biochemical
# T2 construct: expression vectors for full-length human PAH (UniProt entry P00439); made in house; host or cells: E. coli T7 Express (NEB) with pRARE2
# T2 sequence (P00439 1-452): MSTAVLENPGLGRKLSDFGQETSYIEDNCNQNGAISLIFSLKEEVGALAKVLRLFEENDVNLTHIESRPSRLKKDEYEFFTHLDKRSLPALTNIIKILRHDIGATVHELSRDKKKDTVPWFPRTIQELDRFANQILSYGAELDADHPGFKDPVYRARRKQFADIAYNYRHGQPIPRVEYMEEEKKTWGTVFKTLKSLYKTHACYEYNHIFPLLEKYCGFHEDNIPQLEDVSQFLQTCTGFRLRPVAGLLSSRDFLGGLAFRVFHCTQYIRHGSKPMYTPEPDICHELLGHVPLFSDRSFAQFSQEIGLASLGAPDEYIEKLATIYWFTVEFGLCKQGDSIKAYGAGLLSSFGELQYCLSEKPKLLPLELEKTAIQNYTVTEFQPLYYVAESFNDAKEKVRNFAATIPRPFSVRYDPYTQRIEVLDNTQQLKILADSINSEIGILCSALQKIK
# Sprague–Dawley rats [1] = test: Dose-range finding study in rats, in-life phase; assay type: in vivo, rat
# Experimental: The in-life phase of the experiment was performed at Pharmacelsus GmbH (Saarbrücken, Germany) and enrolled 24 Sprague–Dawley rats (12 males and 12 females) provided by Janvier Laboratories (France); the animals were 7 weeks old at delivery. Inclusion criteria (sex, appropriate body weight, and absence of behavioral changes) were established prior to the study’s commencement. The animals were housed in a temperature-controlled room (20–24 °C) and maintained in a 12 h light/12 h dark cycle. Before the start of the study, the animals underwent a six-day acclimation period. Food and water were available ad libitum throughout the duration of the study.
# (§1) TPT-004 was formulated in 0.5% (w/v) CMC-Na in water and administered by oral gavage (PO) twice daily (b.i.d.) with a 12 h interval to the treatment groups (3 male and 3 female Sprague–Dawley rats each) for 8 days (15 successive applications). Rats were dosed with 10, 45, and 200 mg/kg, i.e., daily doses of 20, 90, and 400 mg/kg. In addition, a control group was dosed at the same frequency as the vehicle (0.5% CMC-Na).
# (§2) Blood samples were collected as described below. The animal sacrifice (exsanguination) was performed on day 8. During the necropsy, the selected organs were collected, weighed, and shipped to a third-party laboratory for histopathological examination (as described below).
# Sprague–Dawley rats [2] = test: Dose-range finding study in rats, histopathology; assay type: in vivo, rat
# Experimental: as §2
# The histological evaluation was performed by AnaPath Services GmbH (Liestal, Switzerland). The samples from the organs–liver, kidney, lung, heart, brain, femur, and ovary–were fixed in 4% neutral-buffered formaldehyde. The testes were fixed by using the Davidson solution. All tissues were trimmed, processed, and embedded in paraffin wax. Samples from the femur were processed and embedded in paraffin after decalcification. Blocks were cut at an approximate thickness of 2–4 μm and stained with hematoxylin and eosin (HE) according to AnaPath Services GmbH SOP’s. The slides were checked under the microscope for a quality check before examination under a light microscope by the study pathologist.
# [3] = Toxicokinetic evaluation, plasma exposure in rats (LC-MS); assay type: in vivo, rat; conditions: for concentration at 30 min: both sexes, Sprague-Dawley, rat, plasma, po
# Experimental: as §1
# A blood sample of 100 μL was obtained from each rat by puncturing one of the lateral tail veins under short isoflurane anesthesia. Blood was collected in tubes containing lithium heparin and gently mixed. After centrifugation (10 min at 3000g, 4 °C), plasma was separated and stored at −20 °C until LC-MS analysis. In addition, on day 8, the rats were exsanguinated by cardiac puncture under isoflurane anesthesia. A volume of 100 μL of blood (K3-EDTA) was used for immediate cell blood count, while the rest of the blood was mixed with lithium heparin and centrifuged to generate plasma for clinical chemistry analysis.
# brain serotonin turnover = conditions: mice, 1.5 mg/kg BID to 100 mg/kg BID; prior pharmacodynamic studies; cited from earlier work
# [4] = tested on: Sugen–Hypoxia rat model of pulmonary arterial hypertension; conditions: previous study; cited from earlier work
# [5] = calculated from determined IC50 values
# [6] = 10, 45, or 200 mg/kg BID PO, 8 days
# [7] = 10, 45 or 200 mg/kg BID PO, D1 to D8
smiles,measurement,setting,value
CCn1c(=O)[nH]c(=O)c2c1nc(Cc1cn3cc(C)sc3n1)n2CC1COC1 [TPT-004],Mean TPH2 activity [%],human recombinant TPH2; 3 nM,100.37%
same,IC50,"human recombinant TPH2; 3 nM to 10 μM, 30 μM L-Trp, 7.5 μM BH4",21.7 nM
same,Mean TPH2 activity [%],human recombinant TPH2; 10 nM,73.97%
same,Mean TPH2 activity [%],human recombinant TPH2; 30 nM,38.03%
same,Mean TPH2 activity [%],human recombinant TPH2; 100 nM,5.40%
same,Mean TPH2 activity [%],human recombinant TPH2; 300 nM,1.60%
same,Mean TPH2 activity [%],human recombinant TPH2; 1 μM,0.69%
same,Mean TPH2 activity [%],human recombinant TPH2; 3 μM,1.07%
same,Mean TPH2 activity [%],human recombinant TPH2; 10 μM,1.24%
same,Selectivity ratio TPH2 IC50 : TPH1 IC50,human recombinant TPH2; [5],0.65
same,IC50,human recombinant TPH2; supplementary CSV,22 nM
same,Mean PAH activity [%],human recombinant PAH; 10 nM,94.75%
same,IC50,"human recombinant PAH; 10 nM to 30 μM, 175 μM L-Phe, 10 μM BH4",404 nM
same,Mean PAH activity [%],human recombinant PAH; 30 nM,91.12%
same,Mean PAH activity [%],human recombinant PAH; 100 nM,82.79%
same,Mean PAH activity [%],human recombinant PAH; 300 nM,58.10%
same,Mean PAH activity [%],human recombinant PAH; 1 μM,25.53%
same,Mean PAH activity [%],human recombinant PAH; 3 μM,9.81%
same,Mean PAH activity [%],human recombinant PAH; 10 μM,4.37%
same,Mean PAH activity [%],human recombinant PAH; 30 μM,2.49%
same,Selectivity ratio PAH IC50 : TPH1 IC50,human recombinant PAH; [5],12.09
same,IC50,human recombinant PAH; supplementary CSV,404 nM
same,clinical signs,Sprague–Dawley rats [1]; [6],None of the rats exhibited clinical signs
same,survival,Sprague–Dawley rats [1]; [6],All of the animals survived
same,body weight,Sprague–Dawley rats [1]; [7],increased normally
same,food consumption,Sprague–Dawley rats [1]; [7],in the same range as that of the control group
same,"histopathological findings in heart, spleen, kidney, lung, brain, femur, testis, or ovary",Sprague–Dawley rats [2]; 45 and 200 mg/kg BID,no test-related findings
same,histopathological finding in the liver,Sprague–Dawley rats [2]; only at doses ≥45 mg/kg BID,"multifocal, minimal centrilobular hypertrophy"
same,accumulation in plasma after 15 doses,"[3]; 10, 45, 200 mg/kg BID, day 1 vs day 8",absence of an accumulation effect
same,concentration at 30 min,"[3]; 10 mg/kg, day 1, 30 min after the first application, 10 mg/kg PO",902 ± 247 ng/mL
same,concentration at 30 min,"[3]; 10 mg/kg, day 8, 30 min after the 15th application, 10 mg/kg BID PO",877 ± 210 ng/mL
same,concentration at 30 min,"[3]; 45 mg/kg, day 1, 30 min after the first application, 45 mg/kg PO",4720 ± 2420 ng/mL
same,concentration at 30 min,"[3]; 45 mg/kg, day 8, 30 min after the 15th application, 45 mg/kg BID PO",5040 ± 1790 ng/mL
same,concentration at 30 min,"[3]; 200 mg/kg, day 1, 30 min after the first application, 200 mg/kg PO",18200 ± 6610 ng/mL
same,concentration at 30 min,"[3]; 200 mg/kg, day 8, 30 min after the 15th application, 200 mg/kg BID PO",14400 ± 5600 ng/mL
same,dose linearity correlation in plasma,[3]; day 1,0.9987
same,dose linearity correlation in plasma,[3]; day 8,0.9826
same,balance of brain serotonin turnover,brain serotonin turnover,did not show an altered balance of brain serotonin turnover
same,dose needed to achieve the therapeutic effects,[4],10 mg/kg BID
